Structures can show the parent of a compound that is named as a salt.
Experiments:
Assay type in all cases: cell-based, human
SIX1::GFP cells = assay: PIP-E6 pituitary induction and hormone release
Description: Induction of anterior pituitary gland cells: Pituitary placode cells were induced by culturing SIX1::GFP cells according to the PIP-E6 protocol, wherein pituitary factors SHH, FGF8, FGF10 and/or hypothalamus CM were supplemented in the culture media from days 6-15.
Induction of anterior pituitary gland cells: SIX1::GFP hPSCs were cultured according to a modified PIP-E6 protocol, wherein pituitary factors such as FGF8, FGF10 or SHH, etc., were included in the culture media from days 6-14. Cells were sorted based on expression of SIX1::GFP, and were replated at a concentration of 10,000 cells/cm^2 on PO/L/F, and were incubated with small molecule/growth factors for 2 weeks. (FIG. 68). […] (FIG. 69).

pre-placodal cells = assay: Pituitary placode specification under modified PIP
Source text: Further treatment with agonists for SHH signaling (FIG. 39A) at the pre-placode stage (day 7-11) induced expression of the oral ectoderm marker SIX6 and PITX1 (FIG. 38B), master regulators of pituitary gland development (Tremblay et al., 1998).
Endocrine cells of the anterior pituitary gland are derived from three main precursors lineages (Scully and Rosenfeld, 2002). […] Induction of PIT1 and GATA2 precursor lineages was less efficient but was increased following treatment with the γ-secretase inhibitor DAPT (FIGS. 38F, 38G).
Differentiation of hormone producing cells: During placode induction protocol, Sonic Hedgehog (C25II-R&D 100 ng/ml) and Purmorphamine (Stemgent, 1 μM) were added between days 7-11 of PIP to promote differentiation towards pituitary placode anlage. The cells were maintained without passaging in N2 medium and treated with additional factors such as DAPT (Tocris, 10 μM), between day 13 and day 17 of differentiation to induce PIT1+ and GATA2+ precursor cells (see FIG. 39A).

hESC = assay: Neural induction of hESC by dual SMAD inhibition (PAX6 expression); settings: 10 uM to 30 nM, each added to 10 uM of SB431542
Description: In one embodiment, the present invention contemplates a method establishing an even cell distribution for inducing homogenous neural differentiation of hESCs. To this end, undifferentiated hESC were dissociated into single cells and re-plated onto Matrigel coated dishes in conditioned medium supplement with ROCK inhibitor, Y-27632 (Wananabe et al., 2007). After 72 hours, cells were switched from hESC conditions to knock-out serum replacement medium (KSR) containing either Noggin, SB4315242, or both factors and allowed to differentiate for a total of 11 days (FIG. 1A). […] Neural induction was monitored by expression of PAX6, an early marker of neuroectodermal differentiation (Callaerts, et al., Annu Rev Neurosci 20:483 (1997).
hESC cultures were disaggregated using accutase for 20 minutes, washed using hESC media and pre-plated on gelatin for 1 hour at 37° C. in the presence of ROCK inhibitor to remove MEFs. The nonadherent hESC were washed and plated on matrigel at a density of 10,000-25,000 cells/cm^2 on matrigel (BD) coated dishes in MEF conditioned hESC media (CM) spiked with 10 ng/mL of FGF-2 and ROCK-inhibitor. […] The ROCK inhibitor was withdrawn, and hESC were allowed to expand in CM for 3 days or until they were nearly confluent. […]

[1] = tested on: NSB derived neural precursor cells; assay: Ventral patterning of NSB derived neural precursor cells by FP conditioned media; settings: with CM from hESC derived FP
Source text: The FP has important functional roles during development in neural patterning and axonal path finding (Jessell, 2000). To assess the functional properties of hESCs derived FP conditioned media was isolated at days 9 and 11 and tested for expression of Netrin-1 in the medium using ELISA (FIG. 17A). Under normal NSB conditions, Netrin-1 is detectable at Day 9 and decreases at Day 11 while in the NSB+SHH condition, there is a 3.5 fold increase in Netrin-1 levels, increasing at Day 11 (FIG. 17B). SHH is a critical patterning factor secreted by FP cells and specifying ventral cell types in a dose-dependent manner. To test if hESCs derived FP secretes factors that can specify ventral precursor domains, conditioned media (CM) was isolated at Days 9 and 11 of the differentiation. At Day 6, exogenous SHH was removed and cultures were washed to eliminate any exogenously added SHH from the medium. Naïve neural progenitor cells were isolated at Day 11 of the control (NSB) protocol and cultured with either NSB CM or FP CM. After Day 5 of culture in the presence of CM, the inventors probed for the expression of ventral precursor markers and expression of the SHH responsive gene GLI2. […] Increase in the expression of ventral markers was confirmed at the level of protein (FIG. 17D).

C[C@H](NC(=O)Cc1cc(F)cc(F)c1)C(=O)N[C@H](C(=O)OC(C)(C)C)c1ccccc1 [DAPT]
proportion of each of the three pituitary precursor lineages (SIX1::GFP cells): modulated
Induction of PIT1 and GATA2 precursor lineages (pre-placodal cells): increased

c1cc(-c2cnn3cc(-c4ccc(OCCN5CCCCC5)cc4)cnc23)ccn1 [Dorsomorphin, 6-[4-[2-(1-Piperidinyl)ethoxy]phenyl]-3-(4-pyridinyl)-pyrazolo[1,5-a]pyrimidine dihydrochloride]
efficiency based on the percentage of PAX6+ cells, versus Noggin/SB431542 (hESC): not as high

CC1=C2C[C@H]3[C@@H](CC=C4C[C@@H](O)CC[C@@]43C)[C@@H]2CC[C@]12O[C@@H]1C[C@H](C)CN[C@H]1[C@H]2C [cyclopamine]
NKX2.1, NKX6.1, and GLI2 expression [1]: significantly reduced
